Laboratory results from ChEMBL document CHEMBL4118135, “Optimized allosteric inhibition of engineered protein tyrosine phosphatases with an expanded palette of biarsenical small molecules” (Bioorg Med Chem, 2018).
Substitutions are numbered along the chain they refer to. Active and inactive are the calls of the source. The rule behind the calls is not given here.

What was measured:
[1] = test system: Tyrosine-protein phosphatase non-receptor type 7 (Homo sapiens), P35236 [UNDEFINED MUTATION]; test: Inhibition of allosterically sensitized mutant form of His6-tagged human wild-type HePTP catalytic domain at 1.92 uM using pNPP as substrate incubated for 90 mins by quenched phosphatase activity assay
Sequence of Tyrosine-protein phosphatase non-receptor type 7 (Homo sapiens), P35236 [UNDEFINED MUTATION] (P35236 whole entry, looked up, stated change not applied, the tested form may be a part): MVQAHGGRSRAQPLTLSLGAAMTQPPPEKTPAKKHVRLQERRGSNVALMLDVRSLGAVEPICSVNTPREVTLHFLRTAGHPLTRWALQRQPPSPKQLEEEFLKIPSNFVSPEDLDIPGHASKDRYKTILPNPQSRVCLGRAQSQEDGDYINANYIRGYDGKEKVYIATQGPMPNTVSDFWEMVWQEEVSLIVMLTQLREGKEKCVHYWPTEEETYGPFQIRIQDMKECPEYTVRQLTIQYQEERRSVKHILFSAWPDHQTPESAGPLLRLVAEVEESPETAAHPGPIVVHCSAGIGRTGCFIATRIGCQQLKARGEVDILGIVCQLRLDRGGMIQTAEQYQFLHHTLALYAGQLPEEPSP

[2] = molecular target: T1, Tyrosine-protein phosphatase non-receptor type 11 (Homo sapiens) (UniProt Q06124); test: Inhibition of allosterically sensitized mutant form of His6-tagged human SHP2 catalytic domain at 500 nM at 500 nM using pNPP as substrate incubated for 90 mins by quenched phosphatase activity assay
T1 sequence (whole entry): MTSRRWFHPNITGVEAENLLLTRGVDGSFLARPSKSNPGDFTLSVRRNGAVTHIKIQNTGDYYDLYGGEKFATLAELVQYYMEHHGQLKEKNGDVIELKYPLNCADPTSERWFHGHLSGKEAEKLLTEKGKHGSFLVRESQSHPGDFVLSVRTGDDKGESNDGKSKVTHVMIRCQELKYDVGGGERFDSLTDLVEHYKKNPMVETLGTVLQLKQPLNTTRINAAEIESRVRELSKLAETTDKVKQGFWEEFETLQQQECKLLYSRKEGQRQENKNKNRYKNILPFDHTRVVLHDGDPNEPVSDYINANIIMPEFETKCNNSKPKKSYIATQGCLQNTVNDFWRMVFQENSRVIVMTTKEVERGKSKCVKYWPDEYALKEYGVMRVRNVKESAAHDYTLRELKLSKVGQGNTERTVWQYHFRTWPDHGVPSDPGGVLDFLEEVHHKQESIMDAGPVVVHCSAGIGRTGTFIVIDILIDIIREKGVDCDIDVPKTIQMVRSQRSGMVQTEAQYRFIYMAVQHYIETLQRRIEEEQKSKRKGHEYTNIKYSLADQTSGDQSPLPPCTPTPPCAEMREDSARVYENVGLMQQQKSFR

[3] = molecular target: T1, Tyrosine-protein phosphatase non-receptor type 11 (Homo sapiens); test: Inhibition of allosterically sensitized mutant form of His6-tagged human SHP2 containing SHP1 and […] SH2 domain at 500 nM at 500 nM using pNPP as substrate incubated for 90 mins by quenched phosphatase activity assay
Homo sapiens = species on record: Homo sapiens; test: Inhibition of His6-tagged human wild-type PTP catalytic domain at 500 nM using pNPP as substrate incubated for 90 mins by quenched phosphatase activity assay
[4] = test system: T2, Tyrosine-protein phosphatase non-receptor type 7 (Homo sapiens), P35236 [P171C,V205C]; test: Inhibition of allosterically sensitized mutant form of His6-tagged human HePTP catalytic domain at 500 nM using pNPP as substrate incubated for 90 mins by quenched phosphatase activity assay
T2 sequence (whole entry): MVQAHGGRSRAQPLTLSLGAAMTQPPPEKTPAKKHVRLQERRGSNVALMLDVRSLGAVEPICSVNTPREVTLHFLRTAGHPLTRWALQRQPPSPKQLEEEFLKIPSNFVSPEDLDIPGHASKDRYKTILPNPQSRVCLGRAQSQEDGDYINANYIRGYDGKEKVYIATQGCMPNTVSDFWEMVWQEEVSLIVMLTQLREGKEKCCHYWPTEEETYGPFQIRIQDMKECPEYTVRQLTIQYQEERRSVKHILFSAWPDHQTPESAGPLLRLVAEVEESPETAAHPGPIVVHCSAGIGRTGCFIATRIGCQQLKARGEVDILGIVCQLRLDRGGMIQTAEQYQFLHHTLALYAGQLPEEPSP

[5] = molecular target: Tyrosine-protein phosphatase non-receptor type 6 (Homo sapiens) (UniProt P29350); test: Inhibition of allosterically sensitized mutant form of His6-tagged human SHP1 catalytic domain at 500 nM using pNPP as substrate incubated for 90 mins by quenched phosphatase activity assay
Sequence of Tyrosine-protein phosphatase non-receptor type 6 (Homo sapiens) (P29350 whole entry, the tested form may be a part): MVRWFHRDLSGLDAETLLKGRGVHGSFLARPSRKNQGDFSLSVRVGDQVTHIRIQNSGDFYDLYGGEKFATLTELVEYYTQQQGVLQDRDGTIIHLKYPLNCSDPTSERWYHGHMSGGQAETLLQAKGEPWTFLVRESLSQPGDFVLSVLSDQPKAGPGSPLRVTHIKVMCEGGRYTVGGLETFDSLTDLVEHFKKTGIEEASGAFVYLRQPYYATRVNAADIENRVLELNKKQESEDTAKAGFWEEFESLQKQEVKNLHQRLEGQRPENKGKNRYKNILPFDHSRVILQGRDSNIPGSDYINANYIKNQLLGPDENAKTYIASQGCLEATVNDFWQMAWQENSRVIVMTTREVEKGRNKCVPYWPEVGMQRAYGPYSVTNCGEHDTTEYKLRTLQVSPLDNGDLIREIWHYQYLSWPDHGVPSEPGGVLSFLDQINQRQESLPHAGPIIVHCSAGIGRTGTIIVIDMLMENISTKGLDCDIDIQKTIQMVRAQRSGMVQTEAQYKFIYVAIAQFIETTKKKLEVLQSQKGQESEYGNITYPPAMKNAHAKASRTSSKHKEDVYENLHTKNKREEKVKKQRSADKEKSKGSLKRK

[6] = test system: T3, Tyrosine-protein phosphatase non-receptor type 1 (Homo sapiens), P18031 [P87C,A122C]; test: Inhibition of allosterically sensitized His6-tagged human PTP1B catalytic domain P87C/A122C mutant at 250 nM using pNPP as substrate incubated for 90 mins by quenched phosphatase activity assay
T3 sequence (whole entry): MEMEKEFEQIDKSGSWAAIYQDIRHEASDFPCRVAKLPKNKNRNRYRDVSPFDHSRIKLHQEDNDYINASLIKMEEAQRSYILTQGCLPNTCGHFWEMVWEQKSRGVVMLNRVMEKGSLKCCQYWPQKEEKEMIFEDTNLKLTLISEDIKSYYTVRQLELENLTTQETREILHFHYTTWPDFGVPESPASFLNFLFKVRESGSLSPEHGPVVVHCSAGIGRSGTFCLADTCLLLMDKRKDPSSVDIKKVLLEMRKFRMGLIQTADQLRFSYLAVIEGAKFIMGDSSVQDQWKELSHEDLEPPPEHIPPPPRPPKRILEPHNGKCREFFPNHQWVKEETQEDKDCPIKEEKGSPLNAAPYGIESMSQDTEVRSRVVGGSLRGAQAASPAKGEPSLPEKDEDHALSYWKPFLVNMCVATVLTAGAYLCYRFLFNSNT

[7] = molecular target: Tyrosine-protein phosphatase non-receptor type 13 (Homo sapiens) (UniProt Q12923); test: Inhibition of allosterically sensitized mutant form of His6-tagged human FAP1 catalytic domain at 500 nM using pNPP as substrate incubated for 90 mins by quenched phosphatase activity assay
Sequence of Tyrosine-protein phosphatase non-receptor type 13 (Homo sapiens) (Q12923 whole entry, the tested form may be a part): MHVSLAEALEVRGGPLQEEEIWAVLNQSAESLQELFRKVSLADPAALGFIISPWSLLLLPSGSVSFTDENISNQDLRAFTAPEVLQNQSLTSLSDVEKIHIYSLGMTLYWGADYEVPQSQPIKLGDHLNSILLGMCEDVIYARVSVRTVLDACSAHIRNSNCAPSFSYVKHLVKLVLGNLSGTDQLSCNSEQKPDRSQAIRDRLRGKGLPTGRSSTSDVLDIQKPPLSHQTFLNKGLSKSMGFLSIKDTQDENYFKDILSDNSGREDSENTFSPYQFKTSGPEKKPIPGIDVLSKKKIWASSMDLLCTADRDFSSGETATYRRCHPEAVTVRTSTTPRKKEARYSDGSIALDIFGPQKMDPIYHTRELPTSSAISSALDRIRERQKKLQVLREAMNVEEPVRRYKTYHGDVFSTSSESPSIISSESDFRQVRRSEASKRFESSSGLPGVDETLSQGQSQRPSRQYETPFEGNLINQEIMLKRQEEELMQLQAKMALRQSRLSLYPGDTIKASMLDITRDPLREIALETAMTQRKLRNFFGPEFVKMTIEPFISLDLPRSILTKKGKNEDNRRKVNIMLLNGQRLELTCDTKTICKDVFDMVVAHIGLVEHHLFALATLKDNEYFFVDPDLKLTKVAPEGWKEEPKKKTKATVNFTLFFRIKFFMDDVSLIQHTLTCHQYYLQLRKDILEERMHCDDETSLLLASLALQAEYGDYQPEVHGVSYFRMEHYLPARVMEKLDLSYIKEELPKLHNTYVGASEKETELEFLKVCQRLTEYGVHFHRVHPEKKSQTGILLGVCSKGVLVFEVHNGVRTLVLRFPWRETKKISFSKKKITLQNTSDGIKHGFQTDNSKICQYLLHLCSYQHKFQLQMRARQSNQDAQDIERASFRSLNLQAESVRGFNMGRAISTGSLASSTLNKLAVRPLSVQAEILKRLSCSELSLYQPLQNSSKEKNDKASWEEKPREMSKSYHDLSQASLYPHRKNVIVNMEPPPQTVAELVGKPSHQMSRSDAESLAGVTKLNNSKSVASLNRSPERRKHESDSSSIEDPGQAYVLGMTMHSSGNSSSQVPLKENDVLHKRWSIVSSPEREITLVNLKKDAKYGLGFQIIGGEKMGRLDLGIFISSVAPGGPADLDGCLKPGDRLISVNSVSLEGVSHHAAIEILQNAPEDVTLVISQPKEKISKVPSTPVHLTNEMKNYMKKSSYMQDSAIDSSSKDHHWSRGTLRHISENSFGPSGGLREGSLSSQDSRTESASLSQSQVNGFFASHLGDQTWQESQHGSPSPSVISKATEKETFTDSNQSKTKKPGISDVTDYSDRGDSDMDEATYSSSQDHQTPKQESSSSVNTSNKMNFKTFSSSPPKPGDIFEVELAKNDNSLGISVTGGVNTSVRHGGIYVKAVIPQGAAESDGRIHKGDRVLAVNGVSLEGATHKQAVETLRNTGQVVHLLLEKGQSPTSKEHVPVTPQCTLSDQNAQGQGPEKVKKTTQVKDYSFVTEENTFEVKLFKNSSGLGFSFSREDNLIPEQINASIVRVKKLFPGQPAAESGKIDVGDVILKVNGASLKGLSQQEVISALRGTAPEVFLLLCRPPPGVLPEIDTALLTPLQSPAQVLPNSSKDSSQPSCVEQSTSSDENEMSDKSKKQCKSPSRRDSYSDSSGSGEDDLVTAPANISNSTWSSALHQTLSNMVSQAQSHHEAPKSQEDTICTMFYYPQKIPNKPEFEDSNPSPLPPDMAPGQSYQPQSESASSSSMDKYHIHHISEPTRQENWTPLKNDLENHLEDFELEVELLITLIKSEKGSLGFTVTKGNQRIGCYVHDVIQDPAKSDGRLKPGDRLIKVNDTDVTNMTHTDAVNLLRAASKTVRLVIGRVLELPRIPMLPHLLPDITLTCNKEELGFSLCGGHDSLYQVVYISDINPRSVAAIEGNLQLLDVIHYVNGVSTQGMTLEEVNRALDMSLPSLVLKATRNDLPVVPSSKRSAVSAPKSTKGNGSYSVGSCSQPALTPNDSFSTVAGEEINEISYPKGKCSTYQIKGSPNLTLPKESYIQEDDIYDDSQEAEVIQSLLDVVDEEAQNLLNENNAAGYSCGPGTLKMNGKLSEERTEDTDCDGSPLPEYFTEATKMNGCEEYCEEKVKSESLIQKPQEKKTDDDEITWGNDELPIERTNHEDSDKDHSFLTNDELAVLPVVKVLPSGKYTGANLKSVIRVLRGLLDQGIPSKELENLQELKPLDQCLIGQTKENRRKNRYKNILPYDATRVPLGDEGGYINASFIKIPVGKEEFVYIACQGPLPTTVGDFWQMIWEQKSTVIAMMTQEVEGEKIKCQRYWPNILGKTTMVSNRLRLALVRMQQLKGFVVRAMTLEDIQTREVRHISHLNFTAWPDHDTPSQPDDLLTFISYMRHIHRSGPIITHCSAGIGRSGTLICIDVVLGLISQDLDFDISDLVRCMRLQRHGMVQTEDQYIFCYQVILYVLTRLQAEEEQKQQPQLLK

[8] = test system: T2, Tyrosine-protein phosphatase non-receptor type 7 (Homo sapiens), P35236 [P171C,V205C]; test: Inhibition of allosterically sensitized mutant form of His6-tagged human HePTP catalytic domain using pNPP as substrate incubated for 90 mins by quenched phosphatase activity assay
[9] = test system: T2, Tyrosine-protein phosphatase non-receptor type 7 (Homo sapiens), P35236 [P171C,V205C]; test: Inhibition of allosterically sensitized mutant form of His6-tagged human HePTP catalytic domain at 1 uM using pNPP as substrate measured up to 10 mins by quenched phosphatase activity assay
[10] = molecular target: T4, Tyrosine-protein phosphatase non-receptor type 7 (Homo sapiens) (UniProt P35236); test: Inhibition of His6-tagged human wild-type HePTP catalytic domain at 1 uM using pNPP as substrate incubated for 90 mins by quenched phosphatase activity assay
T4 sequence (whole entry): T2 sequence (whole entry) with C171P, C205V

## O=C(O)c1ccccc1-c1c2cc(Cl)c(=O)c([As]3SCCS3)c-2oc2c([As]3SCCS3)c(O)c(Cl)cc12
[1]
  inhibition: Active

## O=C(O)c1c(F)c(F)c(F)c(F)c1-c1c2ccc(=O)c([As]3SCCS3)c-2oc2c([As]3SCCS3)c(O)ccc12
[1]
  inhibition: Active

## CCCCNC(=O)c1ccc(-c2c3ccc(=O)c([As]4SCCS4)c-3oc3c([As]4SCCS4)c(O)ccc23)c(C(=O)O)c1
[1]
  inhibition: Active

## CC1(C)C(/C=C/C=C/C=C2/N(CCCCS(=O)(=O)O)c3ccc([As]4SCCS4)cc3C2(C)C)=[N+](CCCCS(=O)(=O)O)c2ccc([As]3SCCS3)cc21
[2]
  inhibition: inactive
[3]
  inhibition: inactive
Homo sapiens
  inhibition: Active
[4]
  inhibition: Active
[5]
  inhibition: Active
[6]
  inhibition: Active
[7]
  inhibition: Active

## O=C(O)c1ccc(-c2c3ccc(=O)c([As]4SCCS4)c-3oc3c([As]4SCCS4)c(O)ccc23)c(C(=O)O)c1
[1]
  inhibition: Active

## O=C(O)c1ccccc1-c1c2cc(F)c(=O)c([As]3SCCS3)c-2oc2c([As]3SCCS3)c(O)c(F)cc12
[1]
  inhibition: Active

## CCc1cc2c(-c3ccccc3C(=O)O)c3cc(CC)c(=O)c([As]4SCCS4)c-3oc2c([As]2SCCS2)c1O
[1]
  inhibition: Active

## O=c1ccc2nc3ccc(O)c([As]4SCCS4)c3oc-2c1[As]1SCCS1
[8]
  inhibition: Dose-dependent effect
Homo sapiens
  inhibition: Active
[9]
  inhibition: 50%
[4]
  inhibition: Active
[5]
  inhibition: Active
[10]
  inhibition: inactive
[6]
  inhibition: Active
[7]
  inhibition: Active
